Legend:
[1] = test system: Tobacco seeds germinated on MS medium containing DAS; parameters: species or system Nicotiana tabacum; conditions: in vivo
[2] = test system: Tobacco seeds germinated on MS medium containing DON; parameters: species or system Nicotiana tabacum; conditions: in vivo
wheat = conditions: in vivo; cited from earlier work
[3] = test system: Phytophthora infestans, Colletotrichum coccodes, fusarium solani, fusarium sulphureum, Phoma foreata and Rhizoctonia solani; conditions: cited from earlier work
[4] = test system: transgenic tobacco plants; conditions: in vivo; cited from earlier work

Molecule: 4,15-diacetoxyscirpenol [DAS]
- lowest concentration that would give the best inhibition of wild type tobacco seed growth [1]: 1 µM

Molecule: CC1=C[C@H]2O[C@@H]3[C@H](O)C[C@](C)([C@@]2(CO)[C@H](O)C1=O)[C@]31CO1 [DON, Deoxynivalenol]
- lowest concentration that would give the best inhibition of wild type tobacco seed growth [2]: 10 µM
- inhibition toward wheat (wheat): far more inhibitory than DAS

B1: PAP: 29-kDa ribosome inactivating protein (protein)
chain: VNTIIYNVGSTTISKYATFLNDLRNEAKDPSLKCYGIPMLPNTNTNPKYVLVELQGSNKKTITLMLRRNNLYVMGYSDPFETNKCRYHIFNDISGTERQDVETTLCPNANSRVSKNINFDSRYPTLESKAGVKSRSQVQLGIQILDSNIGKISGVMSFTEKTEAEFLLVAIQMVSEAARFKYIENQVKTNFNRAFNPNPKVLNLQETWGKISTAIHDAKNGVLPKPLELVDASGAKWIVLRVDEIKPDVALLNYVGGSCQTTY
- effect on growth of fungi in vitro [3]: no effect on the growth
- phenotype of PAP-expressing tobacco plants [4]: stunted, mottled phenotype

Source: patent US8026410B2 (priority 2003, dated 2011)
